Measured values published in US7759337B2, “Phthalazine compounds and methods of use” (Amgen Inc., priority 2005, dated 2010).

system: production of TNF by monocytes activated with bacterial lipopolysaccharide (LPS); test: Lipopolysaccharide-activated monocyte TNF production assay; type: cell-based; details: Homo sapiens; whole blood monocyte assay (LPS induced TNF release)
Procedure: Test compounds were evaluated in vitro for the ability to inhibit the production of TNF by monocytes activated with bacterial lipopolysaccharide (LPS). Fresh residual source leukocytes (a byproduct of plateletpheresis) were obtained from a local blood bank, and peripheral blood mononuclear cells (PBMCs) were isolated by density gradient centrifugation on Ficol-Paque Plus (Pharmacia). PBMCs were suspended at 2×10^6/mL in DMEM supplemented to contain 2% FCS, 10 mM, 0.3 mg/mL […], 100 U/mL penicillin G and […] streptomycin sulfate (complete media). Cells were plated into Falcon flat bottom, 96 well culture plates (200 μL/well) and cultured overnight at 37° C. and 6% CO2. Non-adherent cells were removed by washing with 200 μl/well of fresh medium.
Test compounds were dissolved in […]. Compound stock solutions were prepared to an initial concentration of […]. Stocks were diluted initially to 20-200 μM in complete media. Nine two-fold serial dilutions of each compound were then prepared in complete medium.
One hundred microliters of each test compound dilution were added to microtiter wells containing adherent monocytes and 100 μL complete medium. Monocytes were cultured with test compounds for 60 min at which time 25 μL of complete medium containing 30 ng/mL lipopolysaccharide from E. coli K532 were added to each well. Cells were cultured an additional 4 hrs. Culture supernatants were then removed and TNF presence in the supernatants was quantified using an ELISA.
Flat bottom, 96 well Corning High Binding ELISA plates were coated overnight (4° C.) with 150 μL/well of 3 μg/mL murine anti-human TNF-α MAb (R&D Systems #MAB210). Wells were then blocked for 1 h at room temperature with 200 μL/well of CaCl2-free ELISA buffer supplemented to contain 20 mg/mL BSA (standard ELISA buffer: […], 150 mM NaCl, 2 mM CaCl2, 0.15 mM thimerosal, pH 7.4). Plates were washed and replenished with 100 μL of test supernatants (diluted 1:3) or standards. Standards consisted of eleven 1.5-fold serial dilutions from a stock of I ng/mL recombinant human TNF (R&D Systems). Plates were incubated at room temperature for 1 h on orbital shaker (300 rpm), washed and replenished with 100 μL/well of 0.5 μg/mL goat anti-human TNF-α (R&D systems #AB-210-NA) biotinylated at a 4:1 ratio. Plates were incubated for 40 min, washed and replenished with 100 μL/well of alkaline phosphatase-conjugated streptavidin (Jackson ImmunoResearch #016-050-084) at 0.02 μg/mL. Plates were incubated 30 min, washed and replenished with 200 μL/well of 1 mg/mL of p-nitrophenyl phosphate. After 30 min, plates were read at 405 nm on a Vmax plate reader.
Standard curve data were fit to a second order polynomial and unknown TNF-α concentrations determined from their OD by solving this equation for concentration. TNF concentrations were then plotted vs. test compound concentration using a second order polynomial. This equation was then used to calculate the concentration of test compounds causing a 50% reduction in TNF production.

Row | SMILES | IC50 [µM]
1 | Cc1ccc(C(=O)NC2CC2)cc1-c1ccc2c(-c3ccc(C(F)(F)F)cc3Cl)nncc2c1 [Example 219, 3-{1-[2-chloro-4-(trifluoromethyl)phenyl]phthalazin-6-yl}-N-cyclopropyl-4-methylbenzamide] | ≤ 5
2 | Cc1ccc(C(=O)NC2CC2)cc1-c1ccc2c(C(=O)NC(C)C)nncc2c1 [Example 70, 6-{5-[(Cyclopropylamino)carbonyl]-2-methylphenyl}-N-isopropylphthalazine-1-carboxamide] | ≤ 5
3 | Cc1ccc(C(N)=O)cc1-c1ccc2c(OC3CCCCC3)nncc2c1 [Example 311, 3-[1-(cyclohexyloxy)phthalazin-6-yl]-4-methylbenzamide] | ≤ 5
4 | CCNC(=O)c1ccc(C)c(-c2ccc3c(N4CCOCC4)nncc3c2)c1 [Example 41, N-ethyl-4-methyl-3-(1-morpholinophthalazin-6-yl)benzamide] | ≤ 5
5 | Cc1ccc(C(=O)NC2CC2)cc1-c1ccc2c(N3CCCC(C(N)=O)C3)nncc2c1 (centres unmarked) [Example 29, 1-(6-(5-(cyclopropylcarbamoyl)-2-methylphenyl)phthalazin-1-yl)piperidine-3-carboxamide] | ≤ 5
6 | Cc1ccc(C(N)=O)cc1-c1ccc2c(N3CCOC[C@H]3C)nncc2c1 [Example 82, 4-Methyl-3-{1-[(3R)-3-methylmorpholin4-yl]phthalazin-6-yl}benzamide] | ≤ 5
7 | Cc1ccc(C(N)=O)cc1-c1ccc2c(N3C[C@@H]4C[C@H]3CO4)nncc2c1 [Example 115, 4-methyl-3-{1-[(1S,4S)-2-oxa-5-azabicyclo[2.2.1]hept-5-yl]phthalazin-6-yl}benzamide] | ≤ 5
8 | Cc1ccc(C(=O)NC2CC2)cc1-c1ccc2c(N3CCNC[C@H]3C)nncc2c1 [Example 110, N-cyclopropyl-4-methyl-3-{1-[(2R)-2-methylpiperazin-1-yl]phthalazin-6-yl}benzamide] | ≤ 5
9 | CC[C@H](C)Oc1nncc2cc(-c3cc(C(N)=O)ccc3C)ccc12 [Example 322, 4-methyl-3-(1-{[(1S)-1-methylpropyl]oxy}phthalazin-6-yl)benzamide] | ≤ 5
10 | Cc1cc(C)c(-c2nncc3cc(-c4cc(C(=O)NC5CC5)ccc4C)ccc23)c(C)c1 [Example 121, N-cyclopropyl-3-(1-mesitylphthalazin-6-yl)-4-methylbenzamide] | ≤ 5
11 | Cc1ccccc1-c1nncc2cc(Oc3ccccc3C(=O)NC3CC3)ccc12 [Example 343, N-cyclopropyl-2-{[1-(2-methylphenyl)phthalazin-6-yl]oxy}benzamide] | ≤ 5
12 | CONC(=O)c1ccc(C)c(-c2ccc3c(NC(C)C)nncc3c2)c1 [Example 279, 3-[1-(isopropylamino)phthalazin-6-yl]-N-methoxy-4-methylbenzamide] | ≤ 5
13 | Cc1ccc(C(=O)NC2CC2)cc1-c1ccc2c(-c3ccc(CC(=O)O)cc3)nncc2c1 [Example 240, [4-(6-{5-[(cyclopropylamino)carbonyl]-2-methylphenyl}phthalazin-1-yl)phenyl]acetic acid] | ≤ 5
14 | Cc1ccc(C(=O)NC2CC2)cc1-c1ccc2c(N3CC4CC3CO4)nncc2c1 (centres unmarked) [Example 27, 3-(1-(5-oxa-2-aza-bicyclo[2.2.1]heptan-2-yl)phthalazin-6-yl)-N-cyclopropyl-4-methylbenzamide] | ≤ 5
15 | Cc1ccc(C(=O)NC(C)C)cc1-c1ccc2c(N3CCOCC3)nncc2c1 [Example 405, N-isopropyl-4-methyl-3-(1-morpholin-4-ylphthalazin-6-yl)benzamide] | ≤ 5
16 | CSc1ccc(-c2nncc3cc(-c4cc(C(N)=O)ccc4C)ccc23)c(C)c1 [Example 260, 4-methyl-3-{1-[2-methyl-4-(methylsulfanyl)phenyl]phthalazin-6-yl}benzamide] | ≤ 5
17 | Cc1cc(F)ccc1-c1nncc2cc(-c3ccc(Cl)c4c(NC5CC5)noc34)ccc12 [Example 382, 4-chloro-N-cyclopropyl-7-[1-(4-fluoro-2-methylphenyl)phthalazin-6-yl]-1,2-benzisoxazol-3-amine] | ≤ 5
18 | Cc1ccc(C(=O)NC2CC2)cc1-c1ccc2c(N3CCC[C@H]3C(C)C)nncc2c1 [Example 293, N-cyclopropyl-3-{1-[(2S)-2-isopropylpyrrolidin-1-yl]phthalazin-6-yl}-4-methylbenzamide] | ≤ 5

Row | SMILES | IC50 [µM]
19 | CC(=O)N1CCN(c2nncc3cc(-c4cc(C(N)=O)ccc4C)ccc23)[C@@H](C)C1 [Example 383, 3-{1-[(2S)-4-acetyl-2-methylpiperazin-1-yl]phthalazin-6-yl}-4-methylbenzamide] | ≤ 5
20 | CC[C@@H](C)Oc1nncc2cc(-c3cc(C(N)=O)ccc3C)ccc12 [Example 324, 4-methyl-3-(1-{[(1R)-1-methylpropyl]oxy}phthalazin-6-yl)benzamide] | ≤ 5
21 | CCOc1ccc(-c2nncc3cc(-c4cc(C(N)=O)ccc4C)ccc23)c(Cl)c1 [Example 231, 3-[1-(2-chloro-4-ethoxyphenyl)phthalazin-6-yl]-4-methylbenzamide] | ≤ 5
22 | Cc1ccc(C(=O)N(C)C)cc1-c1ccc2c(N3CCOCC3)nncc2c1 [Example 265, N,N,4-trimethyl-3-(1-morpholin-4-ylphthalazin-6-yl)benzamide] | ≤ 5
23 | Cc1ccc(-c2nnn[nH]2)cc1-c1ccc2c(N3CCOCC3)nncc2c1 [Example 77, 6-[2-Methyl-5-(1H-tetraazol-5-yl)phenyl]-1-morpholin-4-ylphthalazine] | ≤ 5
24 | Cc1ccc(C(=O)NC2CC2)cc1-c1ccc2c(N3CCC[C@H]3CO)nncc2c1 [Example 151, N-cyclopropyl-3-{1-[(2S)-2-(hydroxymethyl)pyrrolidin-1-yl]phthalazin-6-yl}-4-methylbenzamide] | ≤ 5
25 | Cc1ccc(C(N)=O)cc1-c1ccc2c(N(C)C(C)C)nncc2c1 [Example 292, 3-{1-[isopropyl(methyl)amino]phthalazin-6-yl}-4-methylbenzamide] | ≤ 5
26 | Cc1ccc(C(=O)NC2CC2)cc1-c1ccc2c(N3CCNC(=O)CC3)nncc2c1 [Example 275, N-cyclopropyl-4-methyl-3-[1-(5-oxo-1,4-diazepan-1-yl)phthalazin-6-yl]benzamide] | ≤ 5
27 | Cc1ccc(C(=O)NC2CC2)cc1-c1ccc2c(NC[C@@H]3CCCO3)nncc2c1 [Example 309, N-cyclopropyl-4-methyl-3-(1-{[(2S)-tetrahydrofuran-2-ylmethyl]amino}phthalazin-6-yl)benzamide] | ≤ 5
28 | Cc1ccc(Oc2ccc3c(-c4ccccc4C)nncc3c2)cc1 [Example 332, 6-(4-methylphenoxy)-1-(2-methylphenyl)phthalazine] | ≤ 5
29 | Cc1ccc(C(=O)NC2CC2)cc1-c1ccc2c(N3CC4CC3CN4)nncc2c1 (centres unmarked) [Example 20, 3-(1-(2,5-diaza-bicyclo[2.2.1]heptan-2-yl)phthalazin-6-yl)-N-cyclopropyl-4-methylbenzamide] | ≤ 5
30 | Cc1ccc(C(N)=O)cc1-c1ccc2c(N3CCCC[C@H]3C)nncc2c1 [Example 182, 4-methyl-3-{1-[(2R)-2-methylpiperidin-1-yl]phthalazin-6-yl}benzamide] | ≤ 5
31 | Cc1ccc(C(N)=O)cc1-c1ccc2c(Cl)nncc2c1 [Example 145, 3-(1-chlorophthalazin-6-yl)-4-methylbenzamide] | ≤ 5
32 | CNc1noc2c(-c3ccc4c(N5C[C@@H](C)OC[C@H]5C)nncc4c3)c(C)ccc12 [Example 65, 7-(1-((2R,5R)-2,5-dimethylmorpholino)phthalazin-6-yl)-N,6-dimethylbenzo [d]isoxazol-3-amine] | ≤ 5
33 | Cc1ccc(C(N)=O)cc1-c1ccc2c(N3CCCOCC3)nncc2c1 [Example 270, 4-methyl-3-[1-(1,4-oxazepan-4-yl)phthalazin-6-yl]benzamide] | ≤ 5
34 | Cc1ccc2c(NC3CC3)noc2c1-c1ccc2c(N3CCOCC3)nncc2c1 [Example 388, N-cyclopropyl-6-methyl-7-(1-morpholin-4-ylphthalazin-6-yl)-1,2-benzisoxazol-3-amine] | ≤ 5
35 | CC(=O)N1CCC(c2nncc3cc(-c4cc(C(=O)NC5CC5)ccc4C)ccc23)CC1 [Example 67, 3-(1-(1-acetylpiperidin-4-yl)phthalazin-6-yl)-N-cyclopropyl-4-methylbenzamide] | ≤ 5
